Columns and labels:
[1] = system: perceived sweetness (sweet sensitive panelists); experiment: Determined isointensities to sucrose solutions of the optional enhancers; type: in vivo, human
Procedure: The sweetness detection threshold for trilobatin, HDG and optional enhancers were determined by the applicant.
The sweetness detection threshold varies somewhat in different individuals. For example, some individuals are able to detect the sweetness of sucrose in a very low concentration of 0.4%, others need at least 0.7%, or at least 1% or even more. All examples were performed with sweet sensitive panelists able to detect at least 0.5% of sucrose or less. The concentration detectable by the average consumer will therefore be higher.

[2] = system: perceived sweet taste (sweet sensitive panelists); experiment: Ranking test of 2 ppm NHDC in water (Example 7); type: in vivo, human
[3] = system: sucrose sweetness; conditions: NHDC at its sweetness detection threshold; Kroeze et al., Chem. Senses 2000; cited from earlier work
[4] = system: perceived sweetness (sweet sensitive panelists); experiment: Sweetness rating on generalized labeled magnitude scale (Example 6); type: in vivo, human; conditions: 1% sucrose in water, test run 3
From the text: Further, panelists were asked to rate each presented sample for sweetness using the generalized labeled magnitude scale (0=no sweetness; […] of any kind). The rating data was compared using the paired t-test.

[5] = system: perceived sweet taste (sweet sensitive panelists); experiment: Ranking test with R-index, isointensity of 15 and 20 ppm HDG in water (Example 1d); type: in vivo, human; conditions: for R-index: critical values 37.26-62.74%
Procedure: All examples were performed with sweet sensitive panelists able to detect at least 0.5% of sucrose or less, unless stated otherwise. The concentration detectable by the average consumer will be higher. The results were obtained using 20 panelists in two replications.
The sucrose concentration that tastes isointense in sweetness to HDG was determined using samples of 15 ppm and 20 ppm, each of which was directly compared to a sucrose sample (sucrose solutions of 0.5%, 1%, 1.5% and 2% concentration). Fifteen milliliters of each blinded sample was presented, at room temperature, in random order to 20 sweet sensitive panelists. In two replications (over 1 session), panelists were asked to rank the solutions, from least sweet to most sweet. The data was subjected to an R-index analysis.

[6] = system: perceived sweet taste (panel); experiment: Small panel ranking of 5-20 ppm HDG in water (Example 1d); type: in vivo, human; conditions: for Rank and taste: rank from least sweet to most sweet
Procedure: Further three small panel testings were performed. HDG samples were prepared in concentrations of 5 ppm, 10 ppm, 15 ppm, and 20 ppm in water. All the samples were coded (presented blind) and given to the panel in random order. The panel was also presented with sucrose solutions for comparison. The panel was asked to taste each sample and rank the samples from the least sweet to most sweet.

[7] = system: perceived sweet taste (sweet sensitive panelists); experiment: Ranking test with R-index, isointensity of 20 ppm HDG in 7% sucrose (Example 2b); type: in vivo, human; conditions: for R-index: critical values 37.11-62.89%
From the text: Panels consisted of 20 sweet sensitive subjects and samples were presented in 2 replications over 1 session. Panelists were presented with 7%, 8%, 9% and 10% sucrose solutions in water and a fifth sample of 20 ppm HDG in 7% sucrose in random order. Subjects were asked to rank the samples from low to high with respect to perceived sweet taste.

[8] = system: perceived sweetness (sweet sensitive panelists); experiment: Ranking test with R-index, sweetness enhancement by 10 ppm HDG in 7% sucrose (Example 12); type: in vivo, human; conditions: for R-index: critical value 37.1 to 62.9%
Procedure: The degree of sweetness enhancement of HDG was tested by determining the isointensity of the HDG-enhanced samples in comparison to sucrose samples. The samples contained 10 ppm HDG in 7% sucrose (HDG-10), and various sucrose solutions of different concentration in water (7%, 8%, 9%, and 10%).
15 ml of each sample was presented at room temperature and in random order to 20 sweet sensitive panelists. In two replications over 1 session, panelists were asked to compare and rank the samples from least sweet to most sweet. The critical value indicates the range wherein the difference of two samples is non-significant.

[9] = system: perceived sweetness (panelists); experiment: Sweetness of HDG in a cola beverage (Example 14); type: in vivo, human; conditions: 20 ppm HDG in cola beverage sweetened with 7% sucrose
From the text: 20 ppm of HDG in a cola beverage sweetened with 7% sucrose was compared to control samples (cola without HDG and sweetened with 7 or 9% sucrose) by 9 panelists.
Panelists were instructed to taste and compare the samples in their sweetness intensity and profile.

[10] = 10 ppm HDG in 7% sucrose vs 7% sucrose
[11] = 10 ppm HDG in 7% sucrose vs 8% sucrose
[12] = 10 ppm HDG in 7% sucrose vs 9% sucrose
[13] = 10 ppm HDG in 7% sucrose vs 10% sucrose

C=C1C[C@@]23CC[C@H]4[C@@](C)(CCC[C@@]4(C)C(=O)O[C@@H]4O[C@H](CO)[C@@H](O)[C@H](O)[C@H]4O)[C@@H]2CC[C@]1(O[C@@H]1O[C@H](CO)[C@@H](O)[C@H](O[C@@H]2O[C@H](CO)[C@@H](O)[C@H](O)[C@H]2O)[C@H]1O[C@@H]1O[C@H](CO)[C@@H](O)[C@H](O)[C@H]1O)C3 [rebaudioside A, Rebaudioside A]
isointensity to sucrose ([1]; 20 ppm rebaudioside A): 0.75 % sucrose

C=C1C[C@@]23CC[C@H]4[C@@](C)(CCC[C@@]4(C)C(=O)O[C@@H]4O[C@H](CO)[C@@H](O)[C@H](O)[C@H]4O)[C@@H]2CC[C@]1(O[C@@H]1O[C@H](CO)[C@@H](O)[C@H](O)[C@H]1O[C@@H]1O[C@H](CO)[C@@H](O)[C@H](O)[C@H]1O)C3 [stevioside, Stevioside]
isointensity to sucrose ([1]; 30 ppm stevioside): 0.5 % sucrose | isointensity to sucrose ([1]; 40 ppm stevioside): 0.75 % sucrose

COc1ccc(CCC(=O)c2c(O)cc(O[C@@H]3O[C@H](CO)[C@@H](O)[C@H](O)[C@H]3O[C@@H]3O[C@@H](C)[C@H](O)[C@@H](O)[C@H]3O)cc2O)cc1O [NHDC, Neohesperidin dihydrochalcone]
isointensity to sucrose ([2]; 2 ppm NHDC in water): 0.5 % sucrose | NHDC sample sweetness ([2]; 2 ppm NHDC in water vs 0.5% sucrose solution): isosweet | NHDC sample sweetness ([2]; 2 ppm NHDC in water vs 1% sucrose solution): less sweet | R-index ([2]; 2 ppm NHDC in water vs 1% sucrose, critical values 35.39-64.61%): 5% | enhancement of sucrose sweetness [3]: does not enhance sucrose sweetness

OC[C@H]1O[C@@](CO)(O[C@H]2O[C@H](CO)[C@@H](O)[C@H](O)[C@H]2O)[C@@H](O)[C@@H]1O [sucrose, alpha-D-glucopyranosyl-(1→2)-beta-D-fructofuranose]
sweetness rating, generalized labeled magnitude scale (0=no sweetness; 10=strongest imaginable sensation) [4]: 0.72 ± 0.06

COc1ccc(CCC(=O)c2c(O)cc(O[C@@H]3O[C@H](CO)[C@@H](O)[C@H](O)[C@H]3O)cc2O)cc1O [HDG, 1-[4-(-D-glucopyranosyloxy)-2,6-dihydroxyphenyl]-3-(3-hydroxy-4-methoxyphenyl)-1-propanone]
R-index ([5]; 15 ppm HDG in water vs 0.5% sucrose): 85% | R-index ([5]; 15 ppm HDG in water vs 1.0% sucrose): 31% | R-index ([5]; 15 ppm HDG in water vs 1.5% sucrose): 10% | R-index ([5]; 15 ppm HDG in water vs 2.0% sucrose): 1% | sample sweetness (HDG, 15 ppm) ([5]; 15 ppm in water vs 0.5% sucrose solution): sweeter | sample sweetness (HDG, 15 ppm) ([5]; 15 ppm in water vs 1.0% sucrose solution): less sweet | sample sweetness (HDG, 15 ppm) ([5]; 15 ppm in water vs 1.5% sucrose solution): less sweet | sample sweetness (HDG, 15 ppm) ([5]; 15 ppm in water vs 2.0% sucrose solution): less sweet | R-index ([5]; 20 ppm HDG in water vs 0.5% sucrose): 92% | R-index ([5]; 20 ppm HDG in water vs 1.0% sucrose): 51% | R-index ([5]; 20 ppm HDG in water vs 1.5% sucrose): 33% | R-index ([5]; 20 ppm HDG in water vs 2.0% sucrose): 4% | sample sweetness (HDG, 20 ppm) ([5]; 20 ppm in water vs 0.5% sucrose solution): Sweeter | sample sweetness (HDG, 20 ppm) ([5]; 20 ppm in water vs 1.0% sucrose solution): Isosweet | sample sweetness (HDG, 20 ppm) ([5]; 20 ppm in water vs 1.5% sucrose solution): Less sweet | sample sweetness (HDG, 20 ppm) ([5]; 20 ppm in water vs 2.0% sucrose solution): Less sweet | isointensity to sucrose ([6]; 5 ppm HDG in water): 0% sucrose (water) | Rank and taste ([6]; 5 ppm HDG in water): 1 - not sweet | Rank and taste ([6]; 10 ppm HDG in water): 2 - very slightly sweet | Rank and taste ([6]; 15 ppm HDG in water): 3 - slightly sweet | isointensity to sucrose ([6]; 20 ppm HDG in water): 1 % sucrose | Rank and taste ([6]; 20 ppm HDG in water): 4 - sweet | sweetness threshold of HDG detected by sweet sensitive individuals ([6]; in water): about 10 ppm | added sucrose sweetness intensity ([7]; 20 ppm HDG in 7% sucrose): 1.5-2 ° Brix | R-index ([7]; 20 ppm HDG in 7% sucrose vs 7% sucrose): 94.8% | R-index ([7]; 20 ppm HDG in 7% sucrose vs 8% sucrose): 62.6% | R-index ([7]; 20 ppm HDG in 7% sucrose vs 9% sucrose): 46.0% | R-index ([7]; 20 ppm HDG in 7% sucrose vs 10% sucrose): 6.8% | sample sweetness (7% sucrose + 20 ppm HDG) ([7]; vs 7% sucrose solution): Sweeter | sample sweetness (7% sucrose + 20 ppm HDG) ([7]; vs 8% sucrose solution): Isosweet | sample sweetness (7% sucrose + 20 ppm HDG) ([7]; vs 9% sucrose solution): Isosweet | sample sweetness (7% sucrose + 20 ppm HDG) ([7]; vs 10% sucrose solution): Less sweet | added sucrose sweetness intensity ([8]; 10 ppm HDG in 7% sucrose): about 1 ° Brix | expected isointensity to sucrose assuming a merely additive effect ([8]; 10 ppm HDG in 7% sucrose): 7.5% | isointensity to sucrose ([8]; 10 ppm HDG in 7% sucrose): 8 % sucrose | sweetness HDG sample [8, 10]: sweeter | R-index [8, 10]: 75.2% | sweetness HDG sample [8, 11]: isosweet | R-index [8, 11]: 37.5% | sweetness HDG sample [8, 12]: less | R-index [8, 12]: 10.7% | sweetness HDG sample [8, 13]: less | R-index [8, 13]: 0.6% | sweetness compared to 9% sucrose cola control [9]: not as sweet | sweetness compared to 7% sucrose cola control ([9]; all 9 panelists): significantly sweeter | taste profile ([9]; similar to the sucrose controls in sweetness onset and duration): non-lingering

C[C@@H]1O[C@@H](O[C@H]2[C@H](Oc3cc(O)c(C(=O)CCc4ccc(O)cc4)c(O)c3)O[C@H](CO)[C@@H](O)[C@@H]2O)[C@H](O)[C@H](O)[C@H]1O [naringin dihydrochalcone, 1-[4-[[2-O-(6-Deoxy-alpha-L-mannopyranosyl)-beta-D-glucopyranosyl]oxy]-2,6-dihydroxyphenyl]-3-(4-hydroxyphenyl)-1-propanone]
isointensity to sucrose ([1]; 45 ppm naringin dihydrochalcone): 0.5 % sucrose | isointensity to sucrose ([1]; 60 ppm naringin dihydrochalcone): 1.25 % sucrose
